Converted amounts (≈) assume the structure as drawn. Non-standard residues stand in square brackets, D forms with d. Residues, ends and D or L forms follow the SMILES beside them. Tic = O=C(O)[C@@H]1Cc2ccccc2CN1; Aoc = NCCCCCCCC(=O)O
Legend:
C. parapsilosis = details: 24 h
C. glabrata = details: 24 h
C. krusei = details: 24 h
C. auris = details: 24 h
in vitro = details: human, EC50 cytotoxicity in HepG2, intracellular ATP assay
C. albicans = details: 24 h
C. dubliniensis = details: 24 h
C. tropicalis = details: 24 h
Fusarium spp. = details: 48 h
C. neoformans = details: 72 h
Scedosporium spp. = details: 72 h
C. gattii = details: 72 h

MIC C. parapsilosis (C. parapsilosis) [µg/mL] | Activity at 24 h MIC50 against Candida spp. (Candida spp.) [µg/mL] | Activity at 24 h MIC90 against Candida spp. (Candida spp.) [µg/mL] | Activity at 48 h MIC50 against Candida spp. (Candida spp.) [µg/mL] | Activity at 48 h MIC90 against Candida spp. (Candida spp.) [µg/mL] | MIC C. glabrata (C. glabrata) [µg/mL] | MIC C. krusei (C. krusei) [µg/mL] | MIC C. auris (C. auris) [µg/mL] | MIC C. albicans (C. albicans) [µg/mL] | MIC C. dubliniensis (C. dubliniensis) [µg/mL] | MIC C. tropicalis (C. tropicalis) [µg/mL] | Compound | EC50 (in vitro) [µg/mL] | MIC Range Fusarium spp. (Fusarium spp.) [µg/mL] | MIC C. neoformans (C. neoformans) [µg/mL] | MIC Range Scedosporium spp. (Scedosporium spp.) [µg/mL] | MIC C. gattii (C. gattii) [µg/mL] | MIC Range Lomentospora prolificans (Lomentospora prolificans) [µg/mL]
0.5 (≈ 0.178 µM) | 0.5 | 1 | 0.5 | 2 | 0.5 (≈ 0.178 µM) | 0.5 (≈ 0.178 µM) | 0.5 (≈ 0.178 µM) | 0.5 (≈ 0.178 µM) | 0.5 (≈ 0.178 µM) | 0.5 (≈ 0.178 µM) | N=C(N)NCCC[C@H](NC(=O)[C@@H](CCCNC(=N)N)NC(=O)[C@H](CCCNC(=N)N)NC(=O)[C@@H](CCCNC(=N)N)NC(=O)[C@@H]1CCCN1C(=O)[C@H](CCCNC(=N)N)NC(=O)[C@@H](CCCNC(=N)N)NC(=O)[C@H](CCCNC(=N)N)NC(=O)[C@@H](CCCNC(=N)N)NC(=O)[C@@H]1CCCN1C(=O)[C@H](CCCNC(=N)N)NC(=O)[C@@H](CCCNC(=N)N)NC(=O)[C@H](CCCNC(=N)N)NC(=O)[C@@H](CCCNC(=N)N)NC(=O)[C@@H]1CCCN1C(=O)[C@@H](CCCNC(=N)N)NC(=O)[C@H](CCCNC(=N)N)NC(=O)[C@@H](CCCNC(=N)N)NC(=O)[C@@H](N)CCCNC(=N)N)C(N)=O [SEQ ID NO: 64, RrRr-P-rRrR-P-rRrR-P-rRrR-NH2] (H-R[dR]R[dR]P[dR]R[dR]RP[dR]R[dR]RP[dR]R[dR]R-NH2) | > 300 | – | – | – | – | –
0.25 (≈ 0.1 µM) | – | – | – | – | 0.25 (≈ 0.1 µM) | 0.5 (≈ 0.2 µM) | 0.5 (≈ 0.2 µM) | 0.25 (≈ 0.1 µM) | 0.25 (≈ 0.1 µM) | 0.25 (≈ 0.1 µM) | N=C(N)NCCC[C@@H](N)C(=O)N[C@@H](CCCNC(=N)N)C(=O)N[C@H](CCCNC(=N)N)C(=O)N[C@@H](CCCNC(=N)N)C(=O)N1CCC[C@H]1C(=O)N[C@H](CCCNC(=N)N)C(=O)N[C@@H](CCCNC(=N)N)C(=O)N[C@H](CCCNC(=N)N)C(=O)N[C@@H](CCCNC(=N)N)C(=O)N1CCC[C@H]1C(=O)N[C@H](CCCNC(=N)N)C(=O)N[C@@H](CCCNC(=N)N)C(=O)N[C@H](CCCNC(=N)N)C(=O)N1CCC[C@H]1C(=O)N[C@H](CCCNC(=N)N)C(=O)N[C@@H](CCCNC(=N)N)C(=O)N[C@H](CCCNC(=N)N)C(N)=O [SEQ ID NO: 60, rRrR-P-rRrR-P-rRr-P-rRr-NH2] (H-[dR]R[dR]RP[dR]R[dR]RP[dR]R[dR]P[dR]R[dR]-NH2) | > 300 | – | – | – | – | –
0.5 (≈ 0.267 µM) | – | – | – | – | 2 (≈ 1.07 µM) | 1 (≈ 0.535 µM) | >32 | 0.25 (≈ 0.134 µM) | 0.25 (≈ 0.134 µM) | 0.5 (≈ 0.267 µM) | N=C(N)NCCC[C@@H](N)C(=O)N[C@@H](CCCNC(=N)N)C(=O)N[C@H](CCCNC(=N)N)C(=O)N1CCC[C@H]1C(=O)N[C@H](CCCNC(=N)N)C(=O)N[C@@H](CCCNC(=N)N)C(=O)N[C@H](CCCNC(=N)N)C(=O)N1CCC[C@H]1C(=O)N[C@H](CCCNC(=N)N)C(=O)N[C@@H](CCCNC(=N)N)C(=O)N1CCC[C@H]1C(=O)N[C@H](CCCNC(=N)N)C(=O)N[C@@H](CCCNC(=N)N)C(N)=O [SEQ ID NO: 69, rRr-P-rRr-P-rR-P-rR-NH2] (H-[dR]R[dR]P[dR]R[dR]P[dR]RP[dR]R-NH2) | – | – | 8 (≈ 4.28 µM) | 8 to 16 | 2 (≈ 1.07 µM) | 32 (≈ 17.1 µM)

Second part, the compound before the results:

Compound | MIC C. parapsilosis (C. parapsilosis) [µg/mL] | Activity at 24 h MIC50 against Candida spp. (Candida spp.) [µg/mL] | Activity at 24 h MIC90 against Candida spp. (Candida spp.) [µg/mL] | Activity at 48 h MIC50 against Candida spp. (Candida spp.) [µg/mL] | Activity at 48 h MIC90 against Candida spp. (Candida spp.) [µg/mL] | MIC C. glabrata (C. glabrata) [µg/mL] | MIC C. krusei (C. krusei) [µg/mL] | MIC C. auris (C. auris) [µg/mL] | MIC C. albicans (C. albicans) [µg/mL] | MIC C. dubliniensis (C. dubliniensis) [µg/mL] | MIC C. tropicalis (C. tropicalis) [µg/mL] | EC50 (in vitro) [µg/mL] | MIC Range Fusarium spp. (Fusarium spp.) [µg/mL] | MIC C. neoformans (C. neoformans) [µg/mL] | MIC Range Scedosporium spp. (Scedosporium spp.) [µg/mL] | MIC C. gattii (C. gattii) [µg/mL] | MIC Range Lomentospora prolificans (Lomentospora prolificans) [µg/mL]
CC(=O)N[C@H](CCCNC(=N)N)C(=O)N[C@@H](CCCNC(=N)N)C(=O)N[C@H](CCCNC(=N)N)C(=O)NCCCCCCCC(=O)N[C@H](CCCNC(=N)N)C(=O)N[C@@H](CCCNC(=N)N)C(=O)N[C@H](CCCNC(=N)N)C(=O)NCCCCCCCC(=O)N[C@H](CCCNC(=N)N)C(=O)N[C@@H](CCCNC(=N)N)C(=O)N[C@H](CCCNC(=N)N)C(=O)N[C@@H](CCCNC(=N)N)C(=O)NCCCCCCCC(=O)N[C@H](CCCNC(=N)N)C(=O)N[C@@H](CCCNC(=N)N)C(=O)N[C@H](CCCNC(=N)N)C(=O)N[C@@H](CCCNC(=N)N)C(N)=O [SEQ ID NO: 31, CH3CONH-rRr-(Aoa)-rRr-(Aoa)-rRrR-(Aoa)-rRrR-NH2] (Ac-[dR]R[dR][Aoc][dR]R[dR][Aoc][dR]R[dR]R[Aoc][dR]R[dR]R-NH2) | 0.25 (≈ 0.0937 µM) | – | – | – | – | 1 (≈ 0.375 µM) | 0.5 (≈ 0.187 µM) | 0.5 (≈ 0.187 µM) | 1 (≈ 0.375 µM) | 1 (≈ 0.375 µM) | 0.5 (≈ 0.187 µM) | – | 0.25 to 4 | 0.5 (≈ 0.187 µM) | 0.5 to 2 | 0.5 (≈ 0.187 µM) | 2 (≈ 0.749 µM)
N=C(N)NCCC[C@@H](N)C(=O)N[C@@H](CCCNC(=N)N)C(=O)N[C@H](CCCNC(=N)N)C(=O)N1Cc2ccccc2C[C@H]1C(=O)N[C@H](CCCNC(=N)N)C(=O)N[C@@H](CCCNC(=N)N)C(=O)N[C@H](CCCNC(=N)N)C(=O)N1Cc2ccccc2C[C@H]1C(=O)N[C@H](CCCNC(=N)N)C(=O)N[C@@H](CCCNC(=N)N)C(=O)N[C@H](CCCNC(=N)N)C(=O)N[C@@H](CCCNC(=N)N)C(=O)N1Cc2ccccc2C[C@H]1C(=O)N[C@H](CCCNC(=N)N)C(=O)N[C@@H](CCCNC(=N)N)C(=O)N[C@H](CCCNC(=N)N)C(=O)N[C@@H](CCCNC(=N)N)C(N)=O [SEQ ID NO: 76, rRr-(Tic)-rRr-(Tic)-rRrR-(Tic)-rRrR-NH2] (H-[dR]R[dR][Tic][dR]R[dR][Tic][dR]R[dR]R[Tic][dR]R[dR]R-NH2) | 0.5 (≈ 0.186 µM) | – | – | – | – | 0.5 (≈ 0.186 µM) | 1 (≈ 0.373 µM) | 0.5 (≈ 0.186 µM) | 0.5 (≈ 0.186 µM) | 0.5 (≈ 0.186 µM) | 0.5 (≈ 0.186 µM) | 139 (≈ 51.7 µM) | – | – | – | – | –
N=C(N)NCCC[C@@H](N)C(=O)N[C@@H](CCCNC(=N)N)C(=O)N[C@H](CCCNC(=N)N)C(=O)N[C@@H](CCCNC(=N)N)C(=O)N[C@H](CCCNC(=N)N)C(=O)N[C@@H](CCCNC(=N)N)C(=O)N[C@H](CCCNC(=N)N)C(=O)N1CCC[C@H]1C(=O)N[C@H](CCCNC(=N)N)C(=O)N[C@@H](CCCNC(=N)N)C(=O)N[C@H](CCCNC(=N)N)C(=O)N[C@@H](CCCNC(=N)N)C(=O)N[C@H](CCCNC(=N)N)C(=O)N[C@@H](CCCNC(=N)N)C(=O)N[C@H](CCCNC(=N)N)C(N)=O [SEQ ID NO: 62, rRrRrRr-P-rRrRrRr-NH2] (H-[dR]R[dR]R[dR]R[dR]P[dR]R[dR]R[dR]R[dR]-NH2) | 0.25 (≈ 0.109 µM) | 0.5 | 4 | 0.5 | 32 | 0.5 (≈ 0.217 µM) | 0.5 (≈ 0.217 µM) | 2 (≈ 0.869 µM) | 0.25 (≈ 0.109 µM) | 0.25 (≈ 0.109 µM) | 0.25 (≈ 0.109 µM) | > 300 | – | – | – | – | –
CC(=O)N[C@H](CCCNC(=N)N)C(=O)N[C@@H](CCCNC(=N)N)C(=O)N[C@H](CCCNC(=N)N)C(=O)N1CCC[C@H]1C(=O)N[C@H](CCCNC(=N)N)C(=O)N[C@@H](CCCNC(=N)N)C(=O)N[C@H](CCCNC(=N)N)C(=O)N1CCC[C@H]1C(=O)N[C@H](CCCNC(=N)N)C(=O)N[C@@H](CCCNC(=N)N)C(=O)N[C@H](CCCNC(=N)N)C(=O)N[C@@H](CCCNC(=N)N)C(=O)N1CCC[C@H]1C(=O)N[C@H](CCCNC(=N)N)C(=O)N[C@@H](CCCNC(=N)N)C(=O)N[C@H](CCCNC(=N)N)C(=O)N[C@@H](CCCNC(=N)N)C(N)=O [SEQ ID NO: 55, CH3CONH-rRr-P-rRr-P-rRrR-P-rRrR-NH2] (Ac-[dR]R[dR]P[dR]R[dR]P[dR]R[dR]RP[dR]R[dR]R-NH2) | 0.25 (≈ 0.0985 µM) | – | – | – | – | 0.5 (≈ 0.197 µM) | 2 (≈ 0.788 µM) | 1 (≈ 0.394 µM) | 1 (≈ 0.394 µM) | 0.5 (≈ 0.197 µM) | 0.5 (≈ 0.197 µM) | – | 0.25 to 1 | 0.5 (≈ 0.197 µM) | 0.5 to 1 | 1 (≈ 0.394 µM) | 1 (≈ 0.394 µM)
N=C(N)NCCC[C@H](NC(=O)[C@@H](CCCNC(=N)N)NC(=O)[C@@H](N)CCCNC(=N)N)C(=O)N[C@H](CCCNC(=N)N)C(=O)N1CCC[C@H]1C(=O)N[C@H](CCCNC(=N)N)C(=O)N[C@@H](CCCNC(=N)N)C(=O)N[C@H](CCCNC(=N)N)C(=O)N1CCC[C@H]1C(=O)N[C@@H](CCCNC(=N)N)C(=O)N[C@H](CCCNC(=N)N)C(=O)N[C@@H](CCCNC(=N)N)C(=O)N1CCC[C@H]1C(=O)N[C@H](CCCNC(=N)N)C(=O)N[C@@H](CCCNC(=N)N)C(=O)N[C@H](CCCNC(=N)N)C(N)=O [SEQ ID NO: 65, RrRr-P-rRr-P-RrR-P-rRr-NH2] (H-R[dR]R[dR]P[dR]R[dR]PR[dR]RP[dR]R[dR]-NH2) | 0.25 (≈ 0.107 µM) | 0.5 | 2 | 0.5 | 32 | 0.5 (≈ 0.214 µM) | 0.5 (≈ 0.214 µM) | 0.5 (≈ 0.214 µM) | 0.25 (≈ 0.107 µM) | 0.5 (≈ 0.214 µM) | 0.5 (≈ 0.214 µM) | > 300 | – | – | – | – | –

From US20240360177A1, “PEPTIDES WITH ANTIMICROBIAL ACTIVITIES” (priority 2021, published 2024)
